From patent publication US11492335B2, “Aryl or heteroaryl triazolone derivatives or salts thereof, or pharmaceutical compositions comprising the same” (YUHAN CORPORATION, priority 2018, dated 2022)
Structures can show the parent of a compound that is named as a salt.

Legend:
Format in all cases: biochemical
[1] = target: T1, recombinant human DAO (diamine oxidase) (Homo sapiens, UniProt P19801); test: Activity on recombinant human DAO, Amplex Red method, 1 mM putrescine substrate; conditions: recombinant human DAO, 1 mM putrescine substrate; read-out: Inhibitory Activity (IC50, nM) DAO
T1 construct: purchased R&D systems
T1 sequence (P19801 20-751): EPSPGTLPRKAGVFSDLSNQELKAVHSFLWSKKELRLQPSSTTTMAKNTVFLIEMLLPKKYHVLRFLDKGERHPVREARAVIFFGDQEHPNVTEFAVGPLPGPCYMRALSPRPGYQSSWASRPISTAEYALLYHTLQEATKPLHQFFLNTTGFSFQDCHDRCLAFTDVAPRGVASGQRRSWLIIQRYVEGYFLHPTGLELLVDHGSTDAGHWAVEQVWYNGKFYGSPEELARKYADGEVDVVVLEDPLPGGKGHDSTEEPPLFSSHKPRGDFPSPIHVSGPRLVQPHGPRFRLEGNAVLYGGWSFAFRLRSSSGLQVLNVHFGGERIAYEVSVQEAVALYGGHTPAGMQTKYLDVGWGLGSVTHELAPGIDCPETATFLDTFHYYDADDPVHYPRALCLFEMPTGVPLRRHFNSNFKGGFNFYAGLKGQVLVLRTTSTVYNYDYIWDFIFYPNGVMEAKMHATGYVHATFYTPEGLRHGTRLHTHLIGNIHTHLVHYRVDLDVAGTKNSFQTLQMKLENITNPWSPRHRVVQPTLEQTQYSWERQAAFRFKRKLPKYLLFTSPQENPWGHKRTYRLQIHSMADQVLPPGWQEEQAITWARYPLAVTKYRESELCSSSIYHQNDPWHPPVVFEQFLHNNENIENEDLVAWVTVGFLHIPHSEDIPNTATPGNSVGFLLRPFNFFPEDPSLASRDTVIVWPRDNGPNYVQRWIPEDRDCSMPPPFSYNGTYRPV
Method in brief: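 Inhibition of recombinant human DAO (diamine oxidase, R&D systems) was assessed with the Amplex Red Hydrogen Peroxide Assay Kit. Hydrogen peroxide produced from 1 mM putrescine was detected through an HRP-coupled reaction that converts Amplex Red into fluorescent resorufin, read at 544 nm excitation and 590 nm emission. IC50 values came from four-parameter logistic fits in GraphPad Prism.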

[2] = target: T2, recombinant human MAO-B (monoamine oxidase-B) (Homo sapiens, UniProt P27338); test: Activity on recombinant human MAO-B, Amplex Red method, 1 mM benzylamine substrate; conditions: 1 mM benzylamine substrate, read-out: Inhibitory Activity (IC50, nM) MAO-B
T2 construct: purchased Sigma-Aldrich
T2 sequence (P27338 1-520): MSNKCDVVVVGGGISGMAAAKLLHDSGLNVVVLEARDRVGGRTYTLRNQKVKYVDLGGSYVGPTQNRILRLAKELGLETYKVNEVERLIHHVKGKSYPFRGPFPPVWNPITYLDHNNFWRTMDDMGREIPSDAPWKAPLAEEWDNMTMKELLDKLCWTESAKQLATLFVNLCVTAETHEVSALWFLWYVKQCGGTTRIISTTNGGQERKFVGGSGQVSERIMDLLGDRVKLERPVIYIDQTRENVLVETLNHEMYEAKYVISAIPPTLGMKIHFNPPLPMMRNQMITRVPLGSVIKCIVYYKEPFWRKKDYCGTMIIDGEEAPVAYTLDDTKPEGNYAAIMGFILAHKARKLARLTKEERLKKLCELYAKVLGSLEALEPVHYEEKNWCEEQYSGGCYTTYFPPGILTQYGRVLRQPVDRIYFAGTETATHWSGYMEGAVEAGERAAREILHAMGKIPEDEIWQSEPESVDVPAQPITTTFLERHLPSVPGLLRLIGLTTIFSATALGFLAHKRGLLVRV
Method in brief: (§1)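 Enzyme preincubated with compound 30 min at 37 °C in 50 mM sodium phosphate pH 7.4, final DMSO below 1%. Substrate was 0.5 mM tyramine for MAO-A and 1 mM benzylamine for MAO-B, with 200 uM Amplex Red and 1 U/mL HRP. H2O2-coupled resorufin fluorescence (ex 544/em 590) followed over 1–2 h; 8-point 4-parameter IC50.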

[3] = target: T3, recombinant human VAP-1 (Homo sapiens, UniProt Q16853); test: Activity on recombinant human VAP-1, Amplex Red HRP-coupled hydrogen peroxide assay, benzylamine substrate; conditions: recombinant human VAP-1, benzylamine substrate; read-out: Inhibitory Activity (IC50, nM) human VAP-1
T3 construct: purchased R&D systems
T3 sequence (Q16853 1-763): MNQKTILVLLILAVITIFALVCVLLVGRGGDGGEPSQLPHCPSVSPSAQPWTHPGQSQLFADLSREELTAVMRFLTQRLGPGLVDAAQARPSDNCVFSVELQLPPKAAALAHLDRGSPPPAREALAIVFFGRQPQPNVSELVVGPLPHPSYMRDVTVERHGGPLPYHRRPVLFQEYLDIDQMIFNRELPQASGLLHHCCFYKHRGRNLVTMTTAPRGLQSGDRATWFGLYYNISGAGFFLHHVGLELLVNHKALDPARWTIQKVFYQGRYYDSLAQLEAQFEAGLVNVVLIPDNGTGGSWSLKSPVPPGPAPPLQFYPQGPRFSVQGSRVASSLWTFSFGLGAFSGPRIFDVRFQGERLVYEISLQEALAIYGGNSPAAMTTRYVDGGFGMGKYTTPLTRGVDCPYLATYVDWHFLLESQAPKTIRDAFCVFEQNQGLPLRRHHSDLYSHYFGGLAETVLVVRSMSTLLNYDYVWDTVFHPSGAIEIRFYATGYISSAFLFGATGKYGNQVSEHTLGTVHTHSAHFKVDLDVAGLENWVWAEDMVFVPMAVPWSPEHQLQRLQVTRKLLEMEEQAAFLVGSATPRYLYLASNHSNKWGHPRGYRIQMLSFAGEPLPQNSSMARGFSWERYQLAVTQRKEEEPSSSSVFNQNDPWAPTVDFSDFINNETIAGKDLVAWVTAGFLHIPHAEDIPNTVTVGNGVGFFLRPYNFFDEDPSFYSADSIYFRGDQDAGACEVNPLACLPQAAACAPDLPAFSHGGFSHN
Method in brief: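 Enzyme in 50 mM sodium phosphate pH 7.4 preincubated with compound 30 min at 37 °C, then 1 mM benzylamine, 200 µM Amplex Red and 1 U/mL HRP added. H2O2-derived resorufin fluorescence (ex 544/em 590 nm) followed over 1–2 h; signal-rate decrease versus DMSO control, 8-point curve, four-parameter logistic IC50.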

[4] = target: T4, recombinant human MAO-A (monoamine oxidase-A) (Homo sapiens, UniProt P21397); test: Activity on recombinant human MAO-A, Amplex Red method, 0.5 mM tyramine substrate; conditions: 0.5 mM tyramine substrate, read-out: Inhibitory Activity (IC50, nM) MAO-A
T4 construct: purchased Sigma-Aldrich
T4 sequence (P21397 1-527): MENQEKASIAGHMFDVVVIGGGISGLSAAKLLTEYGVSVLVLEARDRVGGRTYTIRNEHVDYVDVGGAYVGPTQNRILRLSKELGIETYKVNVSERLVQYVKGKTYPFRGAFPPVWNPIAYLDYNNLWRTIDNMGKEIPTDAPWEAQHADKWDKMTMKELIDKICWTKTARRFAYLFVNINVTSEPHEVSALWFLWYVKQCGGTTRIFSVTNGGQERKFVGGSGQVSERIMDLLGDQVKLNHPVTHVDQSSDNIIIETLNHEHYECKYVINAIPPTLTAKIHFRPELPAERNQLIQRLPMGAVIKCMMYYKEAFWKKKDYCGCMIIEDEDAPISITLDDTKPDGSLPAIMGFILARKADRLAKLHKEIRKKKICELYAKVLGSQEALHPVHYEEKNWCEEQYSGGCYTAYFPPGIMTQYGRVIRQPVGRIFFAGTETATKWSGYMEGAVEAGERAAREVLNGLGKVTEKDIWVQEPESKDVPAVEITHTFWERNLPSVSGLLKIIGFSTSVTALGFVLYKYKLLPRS
Method in brief: as §1

SMILES | IC50 [1] | IC50 [2] | IC50 [3] | IC50 [4]
NC/C(=C\F)Cn1ncn(-c2cnc(-c3ccc(N4CCOCC4)nc3)cn2)c1=O [Example 221, 2-[(2E)-2-(aminomethyl)-3-fluoroprop-2-en-1-yl]-4-{5-[6-(morpholin-4-yl)pyridin-3-yl]pyrazin-2-yl}-2,4-dihydro-3H-1,2,4-triazol-3-one] | < 100 nM | 650 nM | 1.9 nM | > 100000 nM
NC/C(=C\F)Cn1ncn(-c2cnc(-c3ccc4nonc4c3)cn2)c1=O [Example 222, 2-[(2E)-2-(aminomethyl)-3-fluoroprop-2-en-1-yl]-4-[5-(2,1,3-benzooxadiazol-5-yl)pyrazin-2-yl]-2,4-dihydro-3H-1,2,4-triazol-3-one] | < 100 nM | 22 nM | 0.94 nM | 770 nM
NC/C(=C\F)Cn1ncn(-c2cnc(-c3ccc4cn[nH]c4c3)cn2)c1=O [Example 223, 2-[(2E)-2-(aminomethyl)-3-fluoroprop-2-en-1-yl]-4-[5-(1H-indazol-6-yl)pyrazin-2-yl]-2,4-dihydro-3H-1,2,4-triazol-3-one] | < 100 nM | 10.5 nM | 2.2 nM | 21700 nM
NC/C(=C\F)Cn1ncn(-c2cnc(-c3ccc4sc(N)nc4c3)cn2)c1=O [Example 224, 4-[5-(2-amino-1,3-benzothiazol-5-yl)pyrazin-2-yl]-2-[(2E)-2-(aminomethyl)-3-fluoroprop-2-en-1-yl]-2,4-dihydro-3H-1,2,4-triazol-3-one] | < 100 nM | 49 nM | 1.3 nM | > 100000 nM
CC(=O)Nc1nc2cc(-c3cnc(-n4cnn(C/C(=C/F)CN)c4=O)cn3)ccc2s1 [Example 225, N-[5-(5-{1-[(2E)-2-(aminomethyl)-3-fluoroprop-2-en-1-yl]-5-oxo-1,5-dihydro-4H-1,2,4-triazol-4-yl}pyrazin-2-yl)-1,3-benzothiazol-2-yl]acetamide] | < 100 nM | 53 nM | 1 nM | > 100000 nM
CS(=O)(=O)c1ccc(-c2cnc(-n3cnn(C/C(=C\F)CN)c3=O)s2)cc1 [Example 226, 2-[(2Z)-2-(aminomethyl)-3-fluoroprop-2-en-1-yl]-4-{5-[4-(methylsulfonyl)phenyl]-1,3-thiazol-2-yl}-2,4-dihydro-3H-1,2,4-triazol-3-one hydrochloride] | < 100 nM | 11.4 nM | 1.4 nM | > 100000 nM
NC/C(=C\F)Cn1ncn(-c2ncc(-c3ccc(-c4nnc[nH]4)cc3)s2)c1=O [Example 227, 2-[(2E)-2-(aminomethyl)-3-fluoroprop-2-en-1-yl]-4-{5-[4-(4H-1,2,4-triazol-3-yl)phenyl]-1,3-thiazol-2-yl}-2,4-dihydro-3H-1,2,4-triazol-3-one] | 0.24 nM | 164 nM | 0.61 nM | > 100000 nM

Continued, values first:

IC50 [1] | IC50 [2] | IC50 [3] | IC50 [4] | SMILES
< 100 nM | 9.2 nM | 0.38 nM | > 100000 nM | NC/C(=C\F)Cn1ncn(-c2ncc(-c3cccc(-c4nnc[nH]4)c3)s2)c1=O [Example 228, 2-[(2E)-2-(aminomethyl)-3-fluoroprop-2-en-1-yl]-4-{5-[3-(4H-1,2,4-triazol-3-yl)phenyl]-1,3-thiazol-2-yl}-2,4-dihydro-3H-1,2,4-triazol-3-one]
< 100 nM | 12 nM | 0.98 nM | 130 nM | NC/C(=C\F)Cn1ncn(-c2ncc(-c3ccc(-c4ncon4)cc3)s2)c1=O [Example 229]
< 100 nM | < 100 nM | 0.78 nM | 24 nM | NC/C(=C/F)Cn1ncn(-c2ncc(-c3ccc4c(c3)OCO4)s2)c1=O [Example 232, 2-[(2Z)-2-(aminomethyl)-3-fluoroprop-2-en-1-yl]-4-[5-(1,3-benzodioxol-5-yl)-1,3-thiazol-2-yl]-2,4-dihydro-3H-1,2,4-triazol-3-one hydrochloride]
< 100 nM | 10.1 nM | 0.98 nM | < 100 nM | NC/C(=C/F)Cn1ncn(-c2ncc(-c3ccc4nonc4c3)s2)c1=O [Example 234, 2-[(2Z)-2-(aminomethyl)-3-fluoroprop-2-en-1-yl]-4-[5-(2,1,3-benzooxadiazol-5-yl)-1,3-thiazol-2-yl]-2,4-dihydro-3H-1,2,4-triazol-3-one hydrochloride]
< 100 nM | 2580 nM | 0.43 nM | > 100000 nM | CC(=O)Nc1nc(Cc2ccc(-n3cnn(C/C(=C/F)CN)c3=O)cc2)cs1 [Example 235, hydrochloride]
6.4 nM | 16 nM | 0.8 nM | > 10000 nM | NC/C(=C\F)Cn1ncn(-c2cc(/C=C/c3ccccc3)ccn2)c1=O [Example 236, 2-[(2E)-2-(aminomethyl)-3-fluoroprop-2-en-1-yl]-4-{4-[(E)-2-phenylethenyl]pyridin-2-yl}-2,4-dihydro-3H-1,2,4-triazol-3-one hydrochloride]
